Where “and” joins values, the source holds several entries; their conditions need not be identical. Identical values can stand only once.
Experiments:
CYP2C19 = system: CYP2C19; set-up: method as in data on file at Galapagos; settings: in vitro; ref data on file at Galapagos; cited from earlier work
CYP2C9 = system: CYP2C9; set-up: method as in data on file at Galapagos, 8, 9; settings: 100 mg once daily, healthy male subjects; ref data on file at Galapagos, 8, 9; cited from earlier work
[1] = Safety and tolerability, study 1 MAD part; type: in vivo, human
Protocol: Safety and tolerability were assessed on the basis of adverse events (AEs), which were monitored throughout both studies. Additional safety assessments included vital signs (including supine [and standing in study 2] heart rate, systolic and diastolic blood pressure, and oral body temperature), 12‐lead electrocardiogram (ECG), clinical laboratory tests (hematology, coagulation [study 2 only], serum/plasma chemistry, urinalysis, urine drug screen, serology, and alcohol breath test), and a comprehensive physical examination. […] In the MAD part of study 1, all additional safety assessments were performed at screening; days 1, 2, 8, 14, and 15; and at follow‐up. In study 2, additional safety assessments were performed at screening (between 21 and 2 days before the first study drug administration); days 1, 2, 5, 10, 14, 15, and 20 (clinical laboratory tests were not performed on day 20); at early discontinuation; and at follow‐up. For study 2, renal function tests (measurement of estimated creatinine clearance rate using the Cockcroft‐Gault equation) were also included in the clinical laboratory tests for safety assessment.
In both studies, the safety analysis was descriptive and focused on changes from baseline and treatment‐emergent findings.

[2] = set-up: method as in PMID 32902984; settings: monkeys, up to 30 mg/kg/d; cited from earlier work

## O=c1nc(OC[C@@H]2COCCO2)cc2n1CCc1cc(C#CC3CC3)ccc1-2 [GLPG1205, 9‐cyclopropylethynyl‐2‐((S)‐1‐[1,4]dioxan‐2‐ylmethoxy)‐6,7‐dihydropyrimido[6,1‐a]isoquinolin‐4‐one]
CYP2C19
  inhibition of CYP2C19: weak inhibition
CYP2C9
  effect on exposure of CYP2C9: did not affect the exposure
[1]; 50 mg QD (n = 6)
  Abdominal discomfort (TEAE): 0 number of subjects (%)
  Abdominal distension (TEAE): 0 number of subjects (%)
  Abdominal pain (TEAE): 0 number of subjects (%)
  Abdominal pain upper (TEAE): 0 number of subjects (%)
  Any TEAE: 2 (33.3) number of subjects (%)
  Decreased appetite (TEAE): 0 number of subjects (%)
  Dehydration (TEAE): 0 number of subjects (%)
  Diarrhea (TEAE): 1 (16.7) number of subjects (%)
  Disturbance in attention (TEAE): 0 number of subjects (%)
  Dizziness (TEAE): 0 number of subjects (%)
  Dry skin (TEAE): 1 (16.7) number of subjects (%)
  Ecchymosis (TEAE): 0 number of subjects (%)
  Erythema (TEAE): 0 number of subjects (%)
  Fatigue (TEAE): 0 number of subjects (%)
  Flatulence (TEAE): 0 number of subjects (%)
  Gastrointestinal disorders (TEAE): 1 (16.7) number of subjects (%)
  General disorders and administration site conditions (TEAE): 0 number of subjects (%)
  Headache (TEAE): 0 number of subjects (%)
  Hot flush (TEAE): 0 number of subjects (%)
  Metabolism and nutrition disorders (TEAE): 0 number of subjects (%)
  Musculoskeletal and connective tissue disorders (TEAE): 0 number of subjects (%)
  Musculoskeletal stiffness (TEAE): 0 number of subjects (%)
  Nausea (TEAE): 0 number of subjects (%)
  Nervous system disorders (TEAE): 0 number of subjects (%)
  Oropharyngeal pain (TEAE): 0 number of subjects (%)
  Respiratory, thoracic, and mediastinal disorders (TEAE): 0 number of subjects (%)
  Skin and subcutaneous tissue disorders (TEAE): 1 (16.7) number of subjects (%)
  Somnolence (TEAE): 0 number of subjects (%)
  Vascular disorders (TEAE): 0 number of subjects (%)
  Vomiting (TEAE): 0 number of subjects (%)
[1]; 50 mg once daily
  subjects with treatment-emergent abnormality during physical examination: 1 n
[1]; 100 mg QD (n = 6)
  Abdominal discomfort (TEAE): 1 (16.7) number of subjects (%)
  Abdominal distension (TEAE): 0 number of subjects (%)
  Abdominal pain (TEAE): 0 number of subjects (%)
  Abdominal pain upper (TEAE): 1 (16.7) number of subjects (%)
  Any TEAE: 5 (83.3) number of subjects (%)
  Decreased appetite (TEAE): 0 number of subjects (%)
  Dehydration (TEAE): 0 number of subjects (%)
  Diarrhea (TEAE): 2 (33.3) number of subjects (%)
  Disturbance in attention (TEAE): 0 number of subjects (%)
  Dizziness (TEAE): 0 number of subjects (%)
  Dry skin (TEAE): 0 number of subjects (%)
  Ecchymosis (TEAE): 1 (16.7) number of subjects (%)
  Erythema (TEAE): 1 (16.7) number of subjects (%)
  Fatigue (TEAE): 0 number of subjects (%)
  Flatulence (TEAE): 0 number of subjects (%)
  Gastrointestinal disorders (TEAE): 3 (50.0) number of subjects (%)
  General disorders and administration site conditions (TEAE): 0 number of subjects (%)
  Headache (TEAE): 3 number of subjects (%) and 3 (50.0) number of subjects (%)
  Hot flush (TEAE): 0 number of subjects (%)
  Metabolism and nutrition disorders (TEAE): 0 number of subjects (%)
  Musculoskeletal and connective tissue disorders (TEAE): 0 number of subjects (%)
  Musculoskeletal stiffness (TEAE): 0 number of subjects (%)
  Nausea (TEAE): 1 (16.7) number of subjects (%)
  Nervous system disorders (TEAE): 3 (50.0) number of subjects (%)
  Oropharyngeal pain (TEAE): 1 (16.7) number of subjects (%)
  Respiratory, thoracic, and mediastinal disorders (TEAE): 1 (16.7) number of subjects (%)
  Skin and subcutaneous tissue disorders (TEAE): 2 (33.3) number of subjects (%)
  Somnolence (TEAE): 0 number of subjects (%)
  Vascular disorders (TEAE): 0 number of subjects (%)
  Vomiting (TEAE): 0 number of subjects (%)
[1]; 100 mg once daily
  subjects with treatment-emergent abnormality during physical examination: 1 n
[1]; 200 mg QD (n = 6)
  Abdominal discomfort (TEAE): 1 (16.7) number of subjects (%)
  Abdominal distension (TEAE): 1 (16.7) number of subjects (%)
  Abdominal pain (TEAE): 1 (16.7) number of subjects (%)
  Abdominal pain upper (TEAE): 0 number of subjects (%)
  Any TEAE: 5 (83.3) number of subjects (%)
  Decreased appetite (TEAE): 1 (16.7) number of subjects (%)
  Dehydration (TEAE): 2 (33.3) number of subjects (%)
  Diarrhea (TEAE): 1 (16.7) number of subjects (%)
  Disturbance in attention (TEAE): 1 (16.7) number of subjects (%)
  Dizziness (TEAE): 1 (16.7) number of subjects (%)
  Dry skin (TEAE): 0 number of subjects (%)
  Ecchymosis (TEAE): 0 number of subjects (%)
  Erythema (TEAE): 0 number of subjects (%)
  Fatigue (TEAE): 3 (50.0) number of subjects (%)
  Flatulence (TEAE): 1 (16.7) number of subjects (%)
  Gastrointestinal disorders (TEAE): 4 (66.7) number of subjects (%)
  General disorders and administration site conditions (TEAE): 3 (50.0) number of subjects (%)
  Headache (TEAE): 4 number of subjects (%) and 4 (66.7) number of subjects (%)
  Hot flush (TEAE): 1 (16.7) number of subjects (%)
  Metabolism and nutrition disorders (TEAE): 2 (33.3) number of subjects (%)
  Musculoskeletal and connective tissue disorders (TEAE): 1 (16.7) number of subjects (%)
  Musculoskeletal stiffness (TEAE): 1 (16.7) number of subjects (%)
  Nausea (TEAE): 2 (33.3) number of subjects (%)
  Nervous system disorders (TEAE): 5 (83.3) number of subjects (%)
  Oropharyngeal pain (TEAE): 2 (33.3) number of subjects (%)
  Respiratory, thoracic, and mediastinal disorders (TEAE): 2 (33.3) number of subjects (%)
  Skin and subcutaneous tissue disorders (TEAE): 0 number of subjects (%)
  Somnolence (TEAE): 1 (16.7) number of subjects (%)
  Vascular disorders (TEAE): 1 (16.7) number of subjects (%)
  Vomiting (TEAE): 2 (33.3) number of subjects (%)
[1]; 200 mg once daily
  subjects with treatment-emergent abnormality during physical examination: 2 n
[1]; 200-mg once-daily group
  TEAE leading to study drug withdrawal: abdominal pain: 1 n
  TEAE leading to study drug withdrawal: decreased appetite: 1 n
  TEAE leading to study drug withdrawal: dehydration: 2 n
  TEAE leading to study drug withdrawal: diarrhea: 1 n
  TEAE leading to study drug withdrawal: dizziness: 1 n
  TEAE leading to study drug withdrawal: fatigue: 2 n
  TEAE leading to study drug withdrawal: flatulence: 1 n
  TEAE leading to study drug withdrawal: headache: 3 n
  TEAE leading to study drug withdrawal: musculoskeletal stiffness: 1 n
  TEAE leading to study drug withdrawal: nausea: 1 n
  TEAE leading to study drug withdrawal: vomiting: 2 n
  subjects in whom study drug was withdrawn: 3 subjects
[1]; 200-mg once-daily group, day 8
  subjects with abnormally high hematocrit, hemoglobin and red blood cell count: Two
[1]; multiple doses, healthy male subjects
  maximum tolerated dose: 100 mg once daily
[2]
  dose-proportionality of exposure: increased dose‐proportionally
